In US10329292B2, “Substituted xanthine derivatives” (Boehringer Ingelheim International GmbH, priority 2017, dated 2019):
pIC50: −log10 of the molar value. “Also recorded” adds a separate entry of the source.

Assays:
TRPC5 channel = target: T1, TRPC5 channel (Homo sapiens, UniProt Q9UL62); test: Assay A: Determination of TRPC5-inhibition (whole-cell patch clamp); assay type: cell-based; conditions: LaCl3-activated current
T1 construct: expressed in transfected cells; host or cells: HEK293 TREx (inducible expression)
T1 sequence (Q9UL62 1-973): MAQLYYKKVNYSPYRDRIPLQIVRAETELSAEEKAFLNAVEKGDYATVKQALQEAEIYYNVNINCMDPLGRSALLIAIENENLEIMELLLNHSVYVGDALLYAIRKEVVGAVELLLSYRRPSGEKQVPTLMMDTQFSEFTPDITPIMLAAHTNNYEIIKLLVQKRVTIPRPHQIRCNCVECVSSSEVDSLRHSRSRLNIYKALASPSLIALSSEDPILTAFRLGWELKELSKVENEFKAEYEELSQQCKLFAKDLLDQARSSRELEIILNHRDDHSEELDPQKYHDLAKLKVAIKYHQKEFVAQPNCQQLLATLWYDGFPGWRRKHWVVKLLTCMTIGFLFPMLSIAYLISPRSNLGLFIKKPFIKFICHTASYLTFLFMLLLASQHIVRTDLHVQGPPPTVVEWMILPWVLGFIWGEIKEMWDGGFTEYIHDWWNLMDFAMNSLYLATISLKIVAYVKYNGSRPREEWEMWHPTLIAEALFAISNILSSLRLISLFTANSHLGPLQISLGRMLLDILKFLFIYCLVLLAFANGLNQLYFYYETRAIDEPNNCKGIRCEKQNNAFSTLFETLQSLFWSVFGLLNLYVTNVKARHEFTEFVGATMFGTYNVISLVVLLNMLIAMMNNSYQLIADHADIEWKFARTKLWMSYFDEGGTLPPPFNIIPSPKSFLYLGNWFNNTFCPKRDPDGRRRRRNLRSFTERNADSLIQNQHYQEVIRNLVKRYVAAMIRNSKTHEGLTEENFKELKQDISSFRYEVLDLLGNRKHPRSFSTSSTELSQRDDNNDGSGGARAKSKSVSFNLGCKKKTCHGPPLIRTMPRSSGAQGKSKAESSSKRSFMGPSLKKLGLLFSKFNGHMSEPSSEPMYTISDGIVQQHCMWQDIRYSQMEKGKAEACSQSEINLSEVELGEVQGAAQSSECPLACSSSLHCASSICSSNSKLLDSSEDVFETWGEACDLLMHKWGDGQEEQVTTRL
Excerpt: Assay A: Determination of TRPC5-Inhibition
Patch clamp experiments permit the detection of currents through the TRPC5 channel in a cell line. In normal whole-cell patch clamp recordings, a glass electrode is brought into contact with a single cell and a high-resistance (gigaohm) seal is established with the cell membrane. The membrane is then ruptured to achieve the whole-cell configuration, permitting control of the voltage of the cell membrane and measurement of currents flowing across the membrane using the amplifier attached to the electrode and resulting in the replacement of cytoplasm with the pipette solution. A perfusion system permits control of the extracellular solution, including the addition of blockers and activators of the current. The current can be activated by including 1.4 μM free Ca2+ in the pipette (intracellular) solution, and 80 μM LaCl3 in the extracellular solution.
TRPC5 cells were induced 20-48 hours, removed from growth plates, and replated at low density (to attain good single-cell physical separation) on glass coverslips for measurement. In some cases, cells were grown in low density overnight on glass coverslips. Patch clamp recordings were made in the whole-cell mode with a holding potential of −40 mV. Every 5 seconds, a voltage ramp was applied from −120 to +100 mV, 400 ms in duration. Currents elicited were quantified at −80 mV and +80 mV. The internal solution consisted of 140 mM cesium aspartate, 10 mM HEDTA, 2 mM CaCl2, 2.27 mM MgCl2 and 10 mM HEPES, pH 7.2, with 1,400 nM calculated free Ca2+. The external solution consisted of 150 mM NaCl, 4.5 mM 15 KCl, 1 mM MgCl2, 2 mM CaCl2, 10 mM HEPES, 10 mM glucose, 1 mM EGTA, pH 7.4. Upon addition of LaCl3, TRPC5 current was induced only in TRPC5-expressing cells and not in parental HEK293 TREx cells. Removal of the LaCh stimulus causes most of the current to go away. Potential blockers were tested for ability to block both inward and outward currents in the continued presence of LaCl3.
IC50 of a compound of the invention was estimated by testing the compound 500 nM. […] Compounds blocking 50% or more at 500 nM are retested at multiple concentrations, and the % block is fitted by standard equations to determine IC50 accurately, using a ⅚ point concentration-response experiment.

hERG channel = target: T2, hERG channel (Homo sapiens, UniProt Q12809); test: Assay B: Determination of hERG-inhibition (patch-clamp); assay type: cell-based; conditions: patch-clamp per Rast and Guth 2014
T2 construct: expressed in transfected cells
Protocol: Assay B: Determination of hERG-Inhibition
hERG-channel inhibition was determined as described in Rast G, Guth B D, Solubility assessment and on-line exposure confirmation in a patch-clamp assay for hERG (human ether-a-go-go-related gene) potassium channel inhibition, J Pharmacol Toxicol Methods. 2014 September-October; 70(2):182-7.

[1] = compounds of the present invention, TRPC5-expressing HEK293 TREx cells
[2] = compounds of the present invention
[3] = compounds of WO2014/143799, TRPC5-expressing HEK293 TREx cells

T2 sequence (Q12809 whole entry): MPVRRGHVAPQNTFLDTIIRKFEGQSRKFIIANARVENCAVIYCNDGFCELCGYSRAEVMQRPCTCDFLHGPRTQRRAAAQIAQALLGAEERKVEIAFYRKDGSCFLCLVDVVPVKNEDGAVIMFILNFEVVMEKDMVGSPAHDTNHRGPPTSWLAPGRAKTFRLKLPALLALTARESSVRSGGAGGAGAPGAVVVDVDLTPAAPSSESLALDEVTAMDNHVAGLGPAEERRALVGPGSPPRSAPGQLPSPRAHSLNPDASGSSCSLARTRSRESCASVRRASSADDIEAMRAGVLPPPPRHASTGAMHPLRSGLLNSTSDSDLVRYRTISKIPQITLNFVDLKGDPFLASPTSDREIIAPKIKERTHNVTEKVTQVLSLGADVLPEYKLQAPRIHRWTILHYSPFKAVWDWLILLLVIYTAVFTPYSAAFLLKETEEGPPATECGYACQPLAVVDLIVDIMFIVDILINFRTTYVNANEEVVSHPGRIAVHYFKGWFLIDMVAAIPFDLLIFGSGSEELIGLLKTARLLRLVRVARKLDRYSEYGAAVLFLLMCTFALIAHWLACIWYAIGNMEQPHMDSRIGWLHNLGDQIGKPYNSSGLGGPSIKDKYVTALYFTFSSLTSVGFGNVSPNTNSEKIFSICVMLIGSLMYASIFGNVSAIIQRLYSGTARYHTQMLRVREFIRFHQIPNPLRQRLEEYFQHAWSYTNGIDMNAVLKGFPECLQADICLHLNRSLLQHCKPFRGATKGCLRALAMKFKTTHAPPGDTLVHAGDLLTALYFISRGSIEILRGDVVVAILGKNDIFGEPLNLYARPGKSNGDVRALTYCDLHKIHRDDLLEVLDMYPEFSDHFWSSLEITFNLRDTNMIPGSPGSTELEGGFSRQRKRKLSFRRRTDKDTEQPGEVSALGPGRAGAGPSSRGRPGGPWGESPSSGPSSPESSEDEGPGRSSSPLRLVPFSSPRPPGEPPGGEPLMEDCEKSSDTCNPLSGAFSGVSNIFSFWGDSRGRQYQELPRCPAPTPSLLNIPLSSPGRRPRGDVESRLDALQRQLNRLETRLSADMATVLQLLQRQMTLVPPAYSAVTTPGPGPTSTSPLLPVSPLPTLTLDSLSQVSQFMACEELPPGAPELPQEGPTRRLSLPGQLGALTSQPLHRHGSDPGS

SMILES	pIC50 (TRPC5 channel; [1])	pIC50 (hERG channel; [2])	other results
Cn1c(=O)n(CCCO)c(=O)c2c1nc(Oc1cccc(Cl)c1)n2Cc1cccc(Cl)c1 [Compound ID 260 in WO2014/143799, reference compound]			Assay A TRPC5 inhibition (TRPC5 channel; [3]): potent TRPC5-inhibition; pIC50 (TRPC5 channel; [3]): > 8.00; Assay B hERG inhibition (hERG channel; compounds of WO2014/143799): low μM range; pIC50 (hERG channel; compounds of WO2014/143799): 5.72
COc1ccccc1-c1nc2c(c(=O)n(CCCO)c(=O)n2C)n1Cc1ccc(F)cc1 [Compound ID 415 in WO2014/143799, reference compound]			Assay A TRPC5 inhibition (TRPC5 channel; [3]): agonism (activation); also recorded: Agonist; pIC50 (hERG channel; compounds of WO2014/143799): < 5.00
CC(C)n1c(=O)n(CCCO)c(=O)c2c1nc(-c1cccnc1OCC1CC1)n2Cc1ccc(Cl)cn1 [Example 8]	> 8.00	< 5.00	
CC(C)n1c(=O)n(CCCO)c(=O)c2c1nc(-c1nccnc1OCC1CC1)n2Cc1ccccc1 [Example 9]	> 8.00	< 5.00	
CC(C)n1c(=O)n(CCCO)c(=O)c2c1nc(-c1ccc(F)nc1OCC1CC1)n2Cc1ccccc1 [Example 10]	> 8.00	< 5.00	
CCn1c(=O)n(CCCO)c(=O)c2c1nc(-c1nccnc1OCC1CC1)n2Cc1ccccc1 [Example 11]	> 8.00	< 5.00	
Cn1c(=O)n(CCCO)c(=O)c2c1nc(-c1nccnc1OCC1CC1)n2Cc1ccc(Cl)cc1 [Example 12]	> 8.00	< 5.00	
Cc1ccc(-c2nc3c(c(=O)n(CCCO)c(=O)n3C(C)C)n2Cc2ccccc2)c(OCC2CC2)n1 [Example 13]	> 8.00	< 5.00	
Cc1nc(OCC2CC2)c(-c2nc3c(c(=O)n(CCCO)c(=O)n3C(C)C)n2Cc2ccc(F)cc2)cc1F [Example 14]	> 8.00	5.24	
Cc1nc(OCC2CC2)c(-c2nc3c(c(=O)n(CCCO)c(=O)n3C(C)C)n2Cc2ccccc2)cc1F [Example 15]	> 8.00	5.24	
CC(C)n1c(=O)n(CCCO)c(=O)c2c1nc(-c1cc(F)cnc1OCC1CC1)n2Cc1ccccc1 [Example 16]	> 8.00	< 5.00	
CC(C)n1c(=O)n(CCCO)c(=O)c2c1nc(-c1cc(F)cnc1OCC1CC1)n2Cc1ccc(F)cc1 [Example 17]	> 8.00	< 5.00	
CC(C)n1c(=O)n(CCCO)c(=O)c2c1nc(-c1cccnc1OCC1CC1)n2Cc1ccccc1 [Example 18]	> 8.00	< 5.00	
CC(C)n1c(=O)n(CCCO)c(=O)c2c1nc(-c1cccnc1OC[C@@H]1CC1(F)F)n2Cc1ccccc1 [Example 19]	> 8.00	< 5.00	
CC(C)n1c(=O)n(CCCO)c(=O)c2c1nc(-c1cccnc1OC[C@H]1CC1(F)F)n2Cc1ccccc1 [Example 20]	> 8.00	< 5.00	
CC(C)n1c(=O)n(CC[C@@H](C)O)c(=O)c2c1nc(-c1cccnc1OCC1CC1)n2Cc1ccccc1 [Example 23]	> 8.00	< 5.00	
CC(C)n1c(=O)n(CC[C@@H](C)O)c(=O)c2c1nc(-c1cccnc1OCC1CC1)n2Cc1ccc(F)cc1 [Example 24]	> 8.00	< 5.00	
CC(C)n1c(=O)n(CC[C@@H](C)O)c(=O)c2c1nc(-c1cccnc1OCC1CC1)n2Cc1ccc(Cl)cc1 [Example 25]	> 8.00	5.12	

Second part, led by results:

pIC50 (TRPC5 channel; [1])	SMILES	pIC50 (hERG channel; [2])	other results
> 8.00	CC(C)n1c(=O)n(CCCO)c(=O)c2c1nc(-c1cccnc1OC[C@H]1CC1(F)F)n2Cc1ccc(F)cc1 (single isomer, unassigned) [Example 21]	< 5.00	
> 8.00	CC(C)n1c(=O)n(CCCO)c(=O)c2c1nc(-c1cccnc1OC[C@@H]1CC1(F)F)n2Cc1ccc(F)cc1 (single isomer, unassigned) [Example 22]	< 5.00	
> 8.00	CC(C)n1c(=O)n(CCCO)c(=O)c2c1nc(-c1cccnc1OCC1CC1)n2Cc1cc(F)cc(F)c1 [Example 1]	< 5.00	
> 8.00	CC(C)n1c(=O)n(CCCO)c(=O)c2c1nc(-c1cccnc1OCC1CC1)n2Cc1ccc(C(F)(F)F)cc1 [Example 2]	5.08	
> 8.00	CC(C)n1c(=O)n(CCCO)c(=O)c2c1nc(-c1cccnc1OCC1CC1)n2Cc1ccc(F)c(F)c1 [Example 3]	< 5.00	
> 8.00	Cc1ccc(Cn2c(-c3cccnc3OCC3CC3)nc3c2c(=O)n(CCCO)c(=O)n3C(C)C)cc1 [Example 4]	< 5.00	
> 8.00	CC(C)n1c(=O)n(CCCO)c(=O)c2c1nc(-c1cccnc1OCC1CC1)n2Cc1ccc(Cl)cc1 [Example 5]	< 5.00	
> 8.00	CC(C)n1c(=O)n(CCCO)c(=O)c2c1nc(-c1cccnc1OCC1CC1)n2Cc1ccc(F)cc1 [Example 6]	< 5.00	
> 8.00	CC(C)n1c(=O)n(CCCO)c(=O)c2c1nc(-c1ccc(F)nc1OCC1CC1)n2Cc1ccc(F)cc1 [Example 7]	< 5.00	
